Measurements as given in publication PMC8856928, “A new strategy for hit generation: Novel in cellulo active inhibitors of CYP121A1 from Mycobacterium tuberculosis via a combined X-ray crystallographic and phenotypic screening approach (XP screen)” (European Journal of Medicinal Chemistry, 2022).
Where a name gives a salt, the structure may show the parent alone. Read-outs that look alike come from different tables or passages of the source.

Key:
CYP121A1 [1] = target: T1, CYP121A1 (Mycobacterium tuberculosis, UniProt P9WPP7); assay: biochemical; format: binding; details: for Kd: UV-Vis titration, compounds screened at 300 μM, Type II Soret shift, 28 °C
T1 construct: made in house
T1 sequence (P9WPP7 whole entry): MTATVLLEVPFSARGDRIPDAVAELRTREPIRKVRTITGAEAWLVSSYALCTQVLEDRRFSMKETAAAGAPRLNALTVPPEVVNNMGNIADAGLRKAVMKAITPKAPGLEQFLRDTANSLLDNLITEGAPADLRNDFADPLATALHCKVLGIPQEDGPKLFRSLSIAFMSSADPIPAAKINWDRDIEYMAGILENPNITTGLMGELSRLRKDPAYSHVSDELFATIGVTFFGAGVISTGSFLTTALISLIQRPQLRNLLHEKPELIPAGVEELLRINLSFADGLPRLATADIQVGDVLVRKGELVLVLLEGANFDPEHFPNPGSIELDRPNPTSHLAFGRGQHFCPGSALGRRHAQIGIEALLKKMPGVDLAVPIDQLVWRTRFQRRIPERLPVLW

Mtb H37Rv = assay: Antimycobacterial activity assay (resazurin colorimetric, whole-cell); format: cell-based, Mycobacterium tuberculosis; details: for MIC90: Mycobacterium tuberculosis, H37RV; for Activity against Mtb: three growth media
CYP121A1 [2] = target: T1, CYP121A1; assay: X-ray crystallographic screening (crystal soaking); format: binding; details: soaking experiments
Mtb CYP121A1 [3] = target: T2, Mtb CYP121A1 (Mycobacterium tuberculosis, UniProt P9WPP7); assay: Differential scanning fluorimetry (DSF); format: binding; details: read-out: ΔTm
T2 construct: His6; made in house
T2 sequence (P9WPP7 whole entry): as above

Mtb strain H37Rv = details: comparison with 61; cited from earlier work
CYP121A1 [4] = target: T1, CYP121A1; format: biochemical; details: 100 μM compound + 100 μM cYY
Mtb CYP121A1 [5] = target: T2, Mtb CYP121A1; assay: biochemical; format: binding; details: 25 °C, 50 μM CYP121A1, 10% DMSO-d6; read-out: Kd (ITC)
CYP121A1 [6] = target: T1, CYP121A1; format: binding; details: Kd for cYY over the cYY control
[7] = 168 h, Mtb H37Rv, 7H9 with low BSA (0.05% albumin, ADN), one week, read-out: MIC90 7H9-Low BSA
[8] = 168 h, Mtb H37Rv, Middlebrook 7H9 with 10% ADC (BSA rich), one week, read-out: MIC90 c7H9
[9] = 336 h, Mtb H37Rv, Mycobacterial Minimal Medium with cholesterol, two weeks, read-out: MIC90 MMM-Ch
[10] = medium not specified or span over the three growth media tested, read-out: MIC90 against Mtb strain H37Rv

SMILES | MIC90 (Mtb H37Rv; [7]) | MIC90 (Mtb H37Rv; [8]) | MIC90 (Mtb H37Rv; [9]) | further results
COc1ccc2[nH]cc(CCc3ccncc3)c2c1 [Compound 43] | – | – | – | Kd (CYP121A1 [1]): 105 ± 10 µM
c1ccc2c(CCc3ccnc(N4CCSCC4)n3)c[nH]c2c1 [Compound 15, 4-(4-(2-(1H-Indol-3-yl)ethyl)pyrimidin-2-yl)thiomorpholine] | 100 µM | 200 µM | 25 µM | MIC90 (Mtb H37Rv; [10]): 12.5 to 50 µM
Fc1ccc2[nH]cc(CCc3ccnc(N4CCOCC4)n3)c2c1 [Compound 51, 4-(4-(2-(5-Fluoro-1H-indol-3-yl)ethyl)pyrimidin-2-yl)morpholine] | 50 µM | 25 µM | 25 µM | Activity against Mtb (Mtb H37Rv): moderate inhibitors
c1ccc2c(CCc3ccncc3)c[nH]c2c1 [Compound 7] | – | – | – | X-ray crystallographic screening result (CYP121A1 [2]): hits; Kd (CYP121A1 [1]): 483 ± 76 µM
COC1CN(c2nccc(CCc3c[nH]c4ccc(Cl)cc34)n2)C1 [Compound 32, 5-Chloro-3-(2-(2-(3-methoxyazetidin-1-yl)pyrimidin-4-yl)ethyl)-1H-indole] | 100 µM | 200 µM | 50 µM | MIC90 (Mtb H37Rv; [10]): 12.5 to 50 µM
Brc1ccc2[nH]cc(CCc3ccncc3)c2c1 [Compound 9] | – | – | – | Kd (CYP121A1 [1]): 3.8 ± 0.5 µM
CN1CCN(c2nccc(CCc3c[nH]c4ccc(Br)cc34)n2)CC1 [Compound 23, 5-Bromo-3-(2-(2-(4-methylpiperazin-1-yl)pyrimidin-4-yl)ethyl)-1H-indole] | 25 µM | 100 µM | 12.5 µM | MIC90 (Mtb H37Rv; [10]): 12.5 to 50 µM
Ic1ccc2[nH]cc(CCc3ccncc3)c2c1 [Compound 42, 5-Iodo-3-(2-(pyridin-4-yl)ethyl)-1H-indole] | – | – | – | Kd (CYP121A1 [1]): 3.2 ± 0.3 µM
c1ccc2c(CCc3nc4c(c(N5CC6CCC(C5)O6)n3)CNC4)c[nH]c2c1 [Compound 82, 3-(2-(2-(1H-Indol-3-yl)ethyl)-6,7-dihydro-5H-pyrrolo[3,4-d]pyrimidin-4-yl)-8-oxa-3-azabicyclo[3.2.1]octane hydrochloride] | – | – | – | ΔTm at 1000 µM (Mtb CYP121A1 [3]): 2.4 °C
Brc1ccc2[nH]cc(CCc3ccnc(N4CCOCC4)n3)c2c1 [Compound 21, 4-(4-(2-(5-Bromo-1H-indol-3-yl)ethyl)pyrimidin-2-yl)morpholine] | – | – | – | X-ray crystallographic screening result (CYP121A1 [2]): hits
c1ccc2c(CCc3ccnc(N4CCCOCC4)n3)c[nH]c2c1 [Compound 60, 4-(4-(2-(1H-Indol-3-yl)ethyl)pyrimidin-2-yl)-1,4-oxazepane] | 50 µM | 25 µM | 25 µM | Activity against Mtb (Mtb H37Rv): moderate inhibitors
Clc1ccc(COC(Cn2ccnc2)c2ccc(Cl)cc2Cl)cc1 (centres unmarked) [econazole] | – | – | – | MIC90 of azole anti-fungal drugs (Mtb strain H37Rv): 8 mg/L
Fc1ccc2[nH]cc(CCc3ccncc3)c2c1 [Compound 41] | – | – | – | Kd (CYP121A1 [1]): 27.3 ± 4.8 µM
Oc1ccc2[nH]cc(CCc3ccnc(N4CCOCC4)n3)c2c1 [Compound 55, 3-(2-(2-Morpholinopyrimidin-4-yl)ethyl)-1H-indol-5-ol] | – | – | – | ΔTm at 1000 µM (Mtb CYP121A1 [3]): 0.5 °C
FC(F)(F)Oc1ccc2[nH]cc(CCc3ccnc(N4CCOCC4)n3)c2c1 [Compound 53, 4-(4-(2-(5-(Trifluoromethoxy)-1H-indol-3-yl)ethyl)pyrimidin-2-yl)morpholine] | 25 µM | 25 µM | 50 µM | Activity against Mtb (Mtb H37Rv): moderate inhibitors
Clc1ccc2[nH]cc(CCc3ccncc3)c2c1 [Compound 8] | – | – | – | Kd (CYP121A1 [1]): 5.8 ± 0.7 µM
c1ccc2c(CCc3nc4c(c(N5CCOCC5)n3)CCNC4)c[nH]c2c1 [Compound 83, 4-(2-(2-(1H-Indol-3-yl)ethyl)-5,6,7,8-tetrahydropyrido[3,4-d]pyrimidin-4-yl)morpholine hydrochloride] | – | – | – | ΔTm at 1000 µM (Mtb CYP121A1 [3]): 1 °C

SMILES | MIC90 (Mtb H37Rv; [7]) | MIC90 (Mtb H37Rv; [8]) | MIC90 (Mtb H37Rv; [9]) | further results
Brc1ccc2[nH]cc(CCc3ccnc(N4CCCO4)n3)c2c1 [Compound 30, 2-(4-(2-(5-Bromo-1H-indol-3-yl)ethyl)pyrimidin-2-yl)isoxazolidine] | 200 µM | 200 µM | 100 µM | –
CO[C@H]1/C=C/O[C@@]2(C)Oc3c(C)c(O)c4c(O)c(c(/C=N/N5CCN(C)CC5)c(O)c4c3C2=O)NC(=O)/C(C)=C\C=C\[C@H](C)[C@H](O)[C@@H](C)[C@@H](O)[C@@H](C)[C@H](OC(C)=O)[C@@H]1C [Rifampicin, reference compound] | 0.013 µM | 0.023 µM | 0.013 µM | –
Brc1ccc2c(c1)N(c1nccc(CCc3c[nH]c4ccccc34)n1)CCO2 [Compound 63, 4-(4-(2-(1H-Indol-3-yl)ethyl)pyrimidin-2-yl)-6-bromo-3,4-dihydro-2H-benzo[b][1,4]oxazine] | 50 µM | 25 µM | 50 µM | Activity against Mtb (Mtb H37Rv): moderate inhibitors
c1ccc2c(CCc3ccnc(N4CC5CCC(C4)O5)n3)c[nH]c2c1 [Compound 58, 3-(4-(2-(1H-Indol-3-yl)ethyl)pyrimidin-2-yl)-8-oxa-3-azabicyclo[3.2.1]octane] | 50 µM | 200 µM | 25 µM | Activity against Mtb (Mtb H37Rv): active, but showed much reduced potency in BSA rich medium
FC(F)(F)Oc1ccc(-c2nccc(CCc3c[nH]c4ccccc34)n2)cc1 [Compound 34, 3-(2-(2-(4-(Trifluoromethoxy)phenyl)pyrimidin-4-yl)ethyl)-1H-indole] | 100 µM | 100 µM | 12.5 µM | MIC90 (Mtb H37Rv; [10]): 12.5 to 50 µM
c1ccc2c(CCc3nc4c(c(N5CCOCC5)n3)CNC4)c[nH]c2c1 [Compound 81, 4-(2-(2-(1H-Indol-3-yl)ethyl)-6,7-dihydro-5H-pyrrolo[3,4-d]pyrimidin-4-yl)morpholine hydrochloride] | – | – | – | ΔTm at 1000 µM (Mtb CYP121A1 [3]): 3.5 °C
FC(F)(F)Oc1ccc2[nH]cc(CCc3ccncc3)c2c1 [Compound 44, 3-(2-(Pyridin-4-yl)ethyl)-5-(trifluoromethoxy)-1H-indole] | – | – | – | Kd (CYP121A1 [1]): 12.7 ± 2.3 µM
COC1CN(c2nccc(CCc3c[nH]c4ccccc34)n2)C1 [Compound 31, 3-(2-(2-(3-Methoxyazetidin-1-yl)pyrimidin-4-yl)ethyl)-1H-indole] | 25 µM | 50 µM | 25 µM | Activity against Mtb (Mtb H37Rv): moderate inhibitors; X-ray crystallographic screening result (CYP121A1 [2]): hits
Clc1ccccc1C(c1ccccc1)(c1ccccc1)n1ccnc1 [clotrimazole] | – | – | – | MIC90 of azole anti-fungal drugs (Mtb strain H37Rv): 11 mg/L
c1ccc2c(c1)OCCN2c1nccc(CCc2c[nH]c3ccccc23)n1 [Compound 61, 4-(4-(2-(1H-Indol-3-yl)ethyl)pyrimidin-2-yl)-3,4-dihydro-2H-benzo[b][1,4]oxazine] | 25 µM | 12.5 µM | 6.25 µM | Inhibition of CYP121A1 / production of mycocyclosin (CYP121A1 [4]): markedly reduced the production of mycocyclosin; MIC90 (Mtb H37Rv; converted from μM value, read-out: MIC90 against Mtb strain H37Rv): ~2.2 mg/L; MIC90 (Mtb H37Rv; [10]): 6.25 µM; Activity against Mtb (Mtb H37Rv): moderate inhibitors
CC(=O)n1cc(CCc2ccnc(N3CCOCC3)n2)c2ccccc21 [Compound 64, 1-(3-(2-(2-Morpholinopyrimidin-4-yl)ethyl)-1H-indol-1-yl)ethan-1-one] | > 400 µM | > 400 µM | > 400 µM | Activity against Mtb (Mtb H37Rv): essentially lost all activity
Nc1[nH]nc(-c2ccc(O)cc2)c1-c1ccc(O)cc1 [Compound 45, reference compound] | – | – | – | ΔTm at 1000 µM (Mtb CYP121A1 [3]): 1 °C; Kd (Mtb CYP121A1 [5]): 20 to 25 µM
Clc1ccc(COC(Cn2ccnc2)c2ccc(Cl)cc2Cl)c(Cl)c1 (centres unmarked) [miconazole] | – | – | – | MIC90 of azole anti-fungal drugs (Mtb strain H37Rv): 8 mg/L
COC1CN(c2nccc(CCc3c[nH]c4ccc(Br)cc34)n2)C1 [Compound 33, 5-Bromo-3-(2-(2-(3-methoxyazetidin-1-yl)pyrimidin-4-yl)ethyl)-1H-indole] | – | – | – | X-ray crystallographic screening result (CYP121A1 [2]): hits
Cn1cc(CCc2ccnc(N3CCOCC3)n2)c2ccccc21 [Compound 57, 4-(4-(2-(1-Methyl-1H-indol-3-yl)ethyl)pyrimidin-2-yl)morpholine] | 25 µM | 50 µM | 25 µM | Activity against Mtb (Mtb H37Rv): moderate inhibitors
c1ccc2c(CCc3ccncn3)c[nH]c2c1 [Compound 10] | – | – | – | ΔTm at 1000 µM (Mtb CYP121A1 [3]): 3.5 °C; X-ray crystallographic screening result (CYP121A1 [2]): hits
c1ccc2c(CCc3ccnc(N4CCOCC4)n3)c[nH]c2c1 [Compound 14, 4-(4-(2-(1H-Indol-3-yl)ethyl)pyrimidin-2-yl)morpholine] | 25 µM | 25 µM | 12.5 µM | Inhibition of CYP121A1 / production of mycocyclosin (CYP121A1 [4]): markedly reduced the production of mycocyclosin; Fold increase (CYP121A1 [6]): 1.5; MIC90 (Mtb H37Rv; [10]): 12.5 to 25 µM; Kd (Mtb CYP121A1 [5]): ~100 µM; X-ray crystallographic screening result (CYP121A1 [2]): hits; Soret band shift (416.5 nm) (CYP121A1 [1]; UV-Vis screen): lack of shift
